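Grown in 96-well plates, cells were treated for 48 hours with each compound at five concentrations. Insufficient inhibition: endpoint recorded as highest concentration tested. TGI is the concentration that stops growth completely.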
Columns and labels:
Experiment in all cases: inhibition of tumour cell growth, NCI panel, 48 h
[1] = test system: 786-0 renal
[2] = test system: A549 NSCLC
[3] = test system: ACHN renal
[4] = test system: BT-549 breast
[5] = test system: CAKI-1 renal
[6] = test system: CCRF-CEM leukemia
[7] = test system: COLO 205 colon
[8] = test system: EKVX NSCLC
[9] = test system: HCC-2998 colon
[10] = test system: HCT-15 colon
[11] = test system: HOP-62 NSCLC
[12] = test system: HS 578T breast
[13] = test system: HT29 colon
[14] = test system: IGROV1 ovarian
[15] = test system: K-562 leukemia
[16] = test system: KM12 colon
[17] = test system: LOX IMVI melanoma
[18] = test system: M14 melanoma
[19] = test system: MALME-3M melanoma
[20] = test system: MCF7 breast
[21] = test system: MDA-MB-231 breast
[22] = test system: MDA-MB-435
[23] = test system: MDA-N
[24] = test system: MOLT-4 leukemia
[25] = test system: NCI-H226 lung
[26] = test system: NCI-H23 lung
[27] = test system: NCI-H460 lung
[28] = test system: NCI-H522 lung
[29] = test system: NCI/ADR-RES ovarian
[30] = test system: OVCAR-3 ovarian
[31] = test system: OVCAR-4 ovarian
[32] = test system: OVCAR-5 ovarian
[33] = test system: OVCAR-8 ovarian
[34] = test system: PC-3 prostate
[35] = test system: RXF 393 renal
[36] = test system: SF-268 CNS
[37] = test system: SF-295 CNS
[38] = test system: SF-539 CNS
[39] = test system: SK-MEL-2 melanoma
[40] = test system: SK-MEL-28 melanoma
[41] = test system: SK-MEL-5 melanoma
[42] = test system: SK-OV-3 ovarian
[43] = test system: SN12C renal
[44] = test system: SNB-19 CNS
[45] = test system: SNB-75 CNS
[46] = test system: SR leukemia
[47] = test system: SW-620 colon
[48] = test system: T-47D breast
[49] = test system: TK-10 renal
[50] = test system: U251 CNS
[51] = test system: UACC-257 melanoma
[52] = test system: UACC-62 melanoma
[53] = test system: UO-31 renal

Measured: TGI

O=C(Nc1ccc(Cl)cc1)NS(=O)(=O)c1coc2cc(F)ccc2c1=O
> 100 µM: all assays above

Reference: PubChem BioAssay (NCI)
